From article PMC11391541, “Target-Directed Dynamic Combinatorial Chemistry Affords Binders of Mycobacterium tuberculosis IspE” (ACS Omega, 2024)
Converted amounts (≈) assume the structure as drawn.

Key:
[1] = solubility in M. tuberculosis 7H9 growth medium; format: physicochemical; conditions: Mtb 7H9 growth medium
Description: Prior to biological evaluation of the tdDCC hits, we tested their solubility in a standard buffer as well as in M. tuberculosis 7H9 growth medium. […] Regrettably, with 3.3 μM the least soluble compound is E1, making our most amplified and promising compound unsuitable for biological evaluation. We assessed the solubility in Mtb growth medium given that it is a complex, nutrient-rich environment with a distinct solubility profile. However, the trend continued, only seven hits are soluble at 8 μM or above, the remaining five compounds, including E1, were not eligible for antitubercular activity testing (Table 1).
Determination of in vitro anti-tubercular activity and solubility in 7H9 medium Anti-tubercular tests were performed as previously described .1 In brief, 7H9 complete medium (BD Difco; Becton Dickinson, Maryland,USA) supplemented with 10% OADC (BD), 0.2% glycerol, and 0.05% Tween80 as previously described ,3 was used to culture Mycobacterium tuberculosis (Mtb) strain H37Rv (ATCC 25618) carrying a mCherry -expressing plasmid (pCherry10 ).4 Cultures were harvested at mid-log phase and frozen in aliquots at – 80 °C. Prior to testing aliquots were thawed followed by centrifugation and the pellet was resuspended in 7H9 medium with 10% OADC (without glycerol and Tween80). This was further thoroughly resuspended by passing it through a syringe with a 26 -gauge needle to avoid clumping of the bacteria. 2×10^5 CFU (colony forming units) were then cultured in a total volume of 100 μl culture medium (triplicates) to test the non-precipitating compounds for the anti-tubercular activity at the concentrations indicated. For these assays, 96-well flat clear bottom black polystyrene microplates (Corning® CellBIND®, Merck, New York, USA) wer e used. Each plate had Rifampicin (at 1 μg/ml and 0.1 μg/ml) (National Reference Center, Borstel) as a reference compound. Plates were sealed with an air -permeable membrane (Porvair Sciences, Wrexham, UK) in a 37 °C incubator with mild agitation (TiMix5, Edmund Bühler, Germany). The activity of compounds was determined after 7 days by measuring the bacterial growth as relative light units (RLU) from the fluorescence intensity obtained at an excitation wavelength of 575 nm and an emission wavelength of 635 n m in a microplate reader (Synergy 2, BioTek Instruments, Vermont, USA). Two independent experiments (each in triplicates) were performed, and all values were normalized to untreated control sample (100%) in each experiment.
To obtain information regarding the toxicity of our compounds, their impact on the viability of human cells was investigated. HepG2 cells (2x10^4 cells per well) were seeded in 96 -well, flat-bottomed culture plates in 100 µL culture medium (DMEM containing 10% fetal calve serum, 1% penicillin -streptomycin). Twenty-four hours after seeding the cells, medium was removed and replaced by medium containing test compounds in a final DMSO concentration of 1%. Compounds were tested in duplicates at a single concentration or, for CC50 determination, at 8 concentrations that were prepared via 2 -fold serial dilutions in 1% DMSO/medium. Epirubicin and doxorubicin were used as positive controls in serial dilutions starting from 10 µM, and rifampicin was used as a negative control (at 100 µM). The living cell mass was determined 48 h after treatment with compounds by adding 0.1 volumes of 3 -(4,5-dimethylthiazol-2-yl)-2,5-diphenyltetrazolium bromide (MTT) solution (5 mg/mL sterile PBS) (Sigma, St. Louis, MO) to the wells. After incubating the cells for 30 min at 37 °C (atmosphere containing 5% CO2), medium was removed and MTT crystals were dissolved in 75 µL of a solution containing 10% SDS and 0.5% acetic acid in DMSO. The optical density (OD) of the samples was determined photometrically at 570 nm in a PHERAstar Omega plate reader (BMG labtech, Ortenberg, Germany). To obtain percent viability for each sample, their ODs were related to those of DMSO controls. […]

MtbIspE [2] = target: T1, MtbIspE (Mycobacterium tuberculosis, UniProt P9WKG7); experiment: MtbIspE binding study via thermal shift assay; conditions: read-out: MtbIspE ΔTm at 20 μM
T1 sequence (P9WKG7 whole entry): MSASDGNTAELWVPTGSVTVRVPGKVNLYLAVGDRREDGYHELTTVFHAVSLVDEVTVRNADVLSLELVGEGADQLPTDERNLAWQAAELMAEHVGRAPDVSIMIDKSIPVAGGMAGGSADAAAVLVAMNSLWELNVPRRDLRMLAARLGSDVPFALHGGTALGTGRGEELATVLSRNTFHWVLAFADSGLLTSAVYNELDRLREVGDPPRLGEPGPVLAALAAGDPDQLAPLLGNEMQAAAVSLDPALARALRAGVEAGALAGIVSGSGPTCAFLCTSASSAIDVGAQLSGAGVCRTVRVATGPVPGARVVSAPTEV

in vitro = conditions: human, HepG2 CC50, HepG2, 48 h, MTT
physchem = conditions: aqueous with cosolvent or surfactant or cyclodextrin, kinetic from dmso stock, solubility 5% DMSO in PBS
EcK12 = experiment: E. coli growth inhibition, wild-type strain K12; format: cell-based, Escherichia coli; conditions: Escherichia coli, 18 h, LB medium, read-out: EcK12 %inh. At 50 μM
MtbIspE [3] = target: T1, MtbIspE; experiment: target-directed dynamic combinatorial chemistry (tdDCC), amplification of acylhydrazones in protein-templated vs blank DCL (HPLC-MS/MS, UV 310 nm); format: binding; conditions: DCL-3, 24 h, 40 mol % MtbIspE; I1 and K1 integrated as one cluster
Description: In this study, we used MtbIspE as target protein and the reversible reaction of hydrazides and aldehydes to form dynamic combinatorial libraries (DCLs) of acylhydrazones. […] To accelerate the reaction at neutral pH, aniline was used as nucleophilic catalyst activating the aldehydes.[2],[4],[19] We analyzed the protein’s effect on the DCLs by comparing HPLC-MS/MS data of blank vs protein-templated (PT) experiments. The experiments spanned 3 days, with periodic sampling (every 2 h, followed by two samples per day after 8 h). The addition of NaOH to raise the pH and halt the reactions ensured the sample composition was preserved for analysis.[19] Templated experiments were conducted in duplicate, and the protein was denatured and removed prior to HPLC-MS/MS analysis.
The tdDCC hits and thus potential MtbIspE binders are amplified in the PT experiment compared to the blank experiment. The first step in the analysis of DCLs is the determination of the equilibrium since the amplification factors need to be calculated when the concentration of products is stable. To determine the evolution of the possible products, it is important to measure the characteristic UV absorbance of the acylhydrazones linker (310 nm) during the HPLC-MS/MS run. The resulting UV peaks are assigned to each product using the MS data (Figures S3–S6). The sum of all peak areas is normalized to 100% in order to obtain the respective relative peak area (RPA) for each product. The RPA values represent relative concentrations, determined at each time point of the blank experiment until the values stabilize. […] However, the rest of the compounds are out of range, making a visual inspection difficult. […] The other three libraries behaved in the same way, reaching equilibrium within 24 h and also maintained stable concentrations beyond (Figures S7–S9). To determine the tdDCC hits, we compared the RPAs of the PT experiments to the blanks at 24 h and set a threshold of at least 50% increase in compound formation. In total, 11 acylhydrazones passed our criteria, with amplification factors ranging from […] to 15.5, qualifying them for resynthesis and further evaluation (Figure 3). During the analysis of chromatograms, challenges arose concerning product identification. Some compound peaks were not neatly separated, forcing us to consider them in clusters, others presented two peaks, likely due to isomers, and were considered separately in our evaluation. Lastly, some compounds were detected by MS, but their respective UV signal interfered with the injection peak or was too low for integration (<1%), both in the blank and PT experiments. Consequently, we excluded these compounds from the analysis (Figure S3–S6).
To a well of a 24-well plate, containing Tris buffer (pH 7.0) were added hydrazides (300 μM each, in DMSO), aldehydes (100 μM each, in DMSO), aniline (20 mM, in DMSO), the protein MtbIspE (25 or 40 μM in Tris buffer at pH 7.0), and an additional amount of DMSO to reach a final concentration of 5% in the DCL with 0.5 mL of end-volume. The DCL was allowed to mix on a plate shaker at room temperature and was frequently monitored via LCMS-MS. For analysis, 30 μL of the corresponding library was mixed with 42 μL acetonitrile and 3 μL of NaOH (1 M), the mixture was centrifuged, and the supernatant was used for the analysis. PT experiments were run in duplicates and the protein was omitted for the blank experiments.
High-resolution mass (HRMS) of final products was determined by HPLC-MS/MS using a Thermo Scientific Q Exactive Focus Orbitrap LC -MS/MS system. All compounds were analyzed for purity by LCMS on Acquity UPLC-SQD system from Waters with a gradient elution of Water (Formic acid 0.1%)/Acetonitrile on an HSS - T3 column (2.1 x 50 mm, Waters), 1.8 µm, at 30°C, PDA detection between 240 -320 nm, and MS detection by simultaneous ES+/ES- ionization in a mass range of 150 -800. The flow is set to 0.9 ml/min, and the […]
gradient time is 1.5 min. […]

HepG2 cells = conditions: read-out: HepG2 CC50; HepG2, 48 h, MTT
MtbIspE [4] = target: T1, MtbIspE; experiment: MtbIspE binding study via MicroScale Thermophoresis (MST); conditions: MST, 20 μM ligand, 200 nM MtbIspE, triplicate; qualitative
EcTolC = experiment: microbe, parasite or virus in culture; format: cell-based; conditions: Escherichia coli, 18 h, LB medium, read-out: EcTolC %inh. At 50 μM

With `O=C(N/N=C/c1cc(Cl)ccc1O)c1cccc(Cl)c1` [K1, (E)-3-Chloro-N′-(5-chloro-2-hydroxybenzylidene)benzohydrazide] the “solubility in 7H9” value [1] was “insoluble”, the ΔTm at 20 µM (MtbIspE [2]) was 0.7 °C and the CC50 (in vitro) was under 10 µM. For the same compound, the solubility at 5 min (physchem) was 25 ± 4 µM (≈ 7.73 µg/mL), the inhibition at 50 µM (EcK12) was under 10% and the “Amplification factors (DCL-3)” value (MtbIspE [3]) was 2.0. For the same compound, the CC50 (HepG2 cells) was 7 ± 3 µM and the “MtbIspE binding at 20 μM” value (MtbIspE [4]) was “consistently demonstrated binding across all measurements and Yes”.
With `CC(C)Cc1cc(C(=O)N/N=C/c2cc(Cl)ccc2O)[nH]n1` [D1, (E)-N′-(5-Chloro-2-hydroxybenzylidene)-3-isobutyl-1H-pyrazole-5-carbohydrazide] the inhibition at 50 µM (EcTolC) was 28 ± 11%, the “solubility in 7H9” value [1] was “insoluble” and the ΔTm at 20 µM (MtbIspE [2]) was under 0.3 °C. For the same compound, the CC50 (in vitro) was under 10 µM, the solubility at 5 min (physchem) was 22 ± 9 µM (≈ 7.06 µg/mL) and the inhibition at 50 µM (EcK12) was 11 ± 4%. For the same compound, the CC50 (HepG2 cells) was 7.9 ± 0.8 µM and the “MtbIspE binding at 20 μM” value (MtbIspE [4]) was “No”.
